The results in this text go back to publication PMC8406319, “The dCache Chemoreceptor TlpA of Helicobacter pylori Binds Multiple Attractant and Antagonistic Ligands via Distinct Sites” (mBio, 2021).

Molecules are shown by their SMILES. Where a name gives a salt, the structure may show the parent alone. Read-outs that look alike come from different tables or passages of the source.

One experiment deals with TlpALBD. In words: Small-molecule ligand binding array. Further: key: + for positive binding; +/− for intermediate binding; − for no binding. Further details: species or system Helicobacter pylori SS1. The conditions noted are these: ligand binding array screen; n = 3. The protocol:
Small-molecule arrays were prepared and performed as previously described ([57]). Briefly, 1 μg of purified TlpALBD in phosphate-buffered saline (PBS) (pH 7.2) was incubated with a molar concentration ratio (4:2:1) of anti-His antibody (Cell Signaling), followed by incubation with a secondary antibody (Thermo Scientific) for signal amplification. The protein-antibody mix was added to an Arrayit Superepoxy III glass substrate array blocked with PBS (pH 7.2) with 1% bovine serum albumin. […] Unbound protein was washed away with PBS with 0.05% Tween. […] Three biological replicates were performed, with a total of 12 data points for each glycan tested. Binding was classified as positive for a ligand if the relative fluorescence unit value was >1-fold above the mean background (defined as the average background of negative-control spots plus 3 standard deviations [SD]) and was statistically significant (P < 0.005 by Student’s t test). Small-molecule array slide preparation and analysis were done according to MIRAGE guidelines ([58]) (outlined in Table S5).
Classification Guidelines
1. Sample: Glycan Binding Sample
Origin: Helico bact er pyl ori SS1; produce d as a reco mbinant His -tagged protein in E.
The preparation of TlpA is exp lained in the Materials and Methods se ct ion: TlpA co nst ruct desi gn and protein purifica tion.
Sample Sample is a His Tagged protein co ntaining only the periplasm ic rece ptor domain, amino […]
Please see Materials and Methods: Li ga nd bi ndi ng arra y.
Proteins were co mplexe d with mouse anti-his antibody, with se co ndary and tertiary Alexa Fluor555 antibodies (rabbit anti-mouse , goat anti-rabbit) at a molar ratio of 4:2:1.
The protein/antibody co mplex was incu bated on ice for 10 mins prior to placi ng on the Assa y array. Arrays were performed with 1 µg of co mplexe d protein incu bated on the array for protoco l 20 min. Arrays were then wash ed 3 times in Array PBS (PBS + 2 mM MgCl2 + 2 mM CaCl2) then dried by ce ntrifugation for 3 min at 300 x g. Sca nning was performed usi ng an Innopsys InnoSca n 1100AL and analyze d usi ng Mapix (Innopsy s). Yes/ no binding was determined by si x posi tive replica te sp ots in three replica te exp eriments. […]
2.2 Small molecule Library […]
descr iption for Compounds printed in the amino aci d/small molecu le array for this st udy are list ed in […]
5.2 Small molecule array with “Map”
The array co nsi sts of triplica te su b-arrays of amino aci ds and sm all moleucl es (24 rows x 10 co lumns) with 400μm sp ot sp aci ng (ce ntre to ce ntre) with a minimum sp ot si ze of 100μm . Each sa mple is printed si x times, with each of the 3 su b-arrays incl uding at least Array layo ut si x negative co ntrol sa mples (print so lution only) and a posi tive co ntrol sa mples […]
Posi tive co ntrols provi de proof of su cce ssf ul immobiliza tion of the amine reagents and provi des for orientation for analysi s.
Sample Arrays are quality co ntrolled by a range of measu res. 1. Each printed array is post print identifica tion sca nned to co nfirm deposi tion of the sa mples on the array su rface prior to neutraliza tion and quality of the remaining sl ide su rface . 2. Post neutralize d sl ides are sca nned again to monitor co ntrol for remaining autofluoresce nce .
1. 6. Detector and Data Processing
Sca nning reso lution: […]
Sca n powers: Low lase r power. […]
analysi s Innopsys MAPIX.

For the next experiment, the target named is T1, TlpAD165A (Helicobacter pylori, UniProt O24925, D165A).
T1 sequence (O24925 28-299 D165A): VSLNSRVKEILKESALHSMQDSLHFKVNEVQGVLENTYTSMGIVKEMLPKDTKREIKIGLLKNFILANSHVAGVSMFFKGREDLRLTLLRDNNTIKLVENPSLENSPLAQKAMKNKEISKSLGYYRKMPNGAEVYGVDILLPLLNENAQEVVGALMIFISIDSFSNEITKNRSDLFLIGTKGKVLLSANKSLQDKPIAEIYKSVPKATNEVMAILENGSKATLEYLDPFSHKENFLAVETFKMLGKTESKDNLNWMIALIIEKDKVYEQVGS
Put plainly: biochemical. An excerpt: (§1) The periplasmic portion of TlpA (TlpALBD), amino acids 28 to 299, from Helicobacter pylori SS1 was cloned into a pBH4 expression vector (pBH4_TlpALBD) to generate an N-terminal 6×His-tagged construct, with a tobacco etch virus (TEV) protease site, under the control of isopropyl-β-D-thiogalactopyranoside (IPTG) ([19]). […] TlpALBD and all point mutants were purified as described previously by Sweeney et al. ([19]).
(§2) Purified TlpALBD was immobilized on a CM5 series S sensor chip, and binding affinities were tested using a Biacore S200 instrument (GE Healthcare) as described previously ([39], [57], [59]). Briefly, proteins were captured using an amine-coupling kit (GE Healthcare), in which the carboxylmethyl dextran matrix of the sensor chip was activated by the injection of a mixture of 0.2 M 1-ethyl-3-[(3-dimethylamino)propyl]-carbodiimide (EDC) and 0.05 M N-hydroxysuccinimide (NHS), followed by the neutralization of the remaining unreacted NHS ester groups by the injection of 1 M ethanolamine-HCl (pH 8.0). Purified TlpALBD was diluted in 10 mM sodium acetate buffer (pH 4.5) at a concentration of 100 μg/ml for immobilization to the chip. A total of 8,400 response units (RU) of TlpALBD were captured on flow cell 2. As a negative control, flow cell 1 was a blank control undergoing the same treatment as the other flow paths, without the protein injection. This set enabled double-reference subtraction of the responses (2 − 1, 3 − 1, and 4 − 1). The tested compounds were prepared as a stock concentration of 100 to 200 mM in PBS. The compounds were then diluted between 1 nM and 1 mM in a series of 1:10 dilutions in PBS and run over the flow cells at a flow rate of 30 μl/min. Between each sample testing, a series of buffer-only injections was run to enable double-blank subtraction for the sensorgram assessment. […] The data sets were analyzed using Biacore S200 evaluation software 2.0.2; sensorgrams were double-reference subtracted.

A further experiment addresses T2, TlpAD254A (Helicobacter pylori, UniProt O24925, D254A).
T2 sequence (O24925 28-299 D254A): T1 sequence (O24925 28-299 D165A)
Put plainly: biochemical.
From the text: as §1, §2

In the next experiment the target is T3, TlpALBD (TlpAWT) (Helicobacter pylori, UniProt O24925).
T3 sequence (O24925 28-299): T1 sequence (O24925 28-299 D165A)
Put plainly: biochemical. Particulars: SPR.
From the text: as §1, §2

A further experiment deals with T4, TlpAM183A (Helicobacter pylori, UniProt O24925, M183A).
T4 sequence (O24925 28-299 M183A): T1 sequence (O24925 28-299 D165A)
In words: biochemical.
From the text: as §1, §2

Another experiment addresses T5, TlpAY228A (Helicobacter pylori, UniProt O24925, Y228A).
T5 sequence (O24925 28-299 Y228A): T1 sequence (O24925 28-299 D165A)
Put plainly: biochemical.
From the text: as §1, §2

The target in the next experiment is T6, TlpAY252A (Helicobacter pylori, UniProt O24925, Y252A).
T6 sequence (O24925 28-299 Y252A): T1 sequence (O24925 28-299 D165A)
In words: biochemical.
From the text: as §1, §2

[1] abbreviates: Mean binding affinity ± SD, Table 1, n = 3.
The mark [2] stands for this setting: dissociation constant [Kd], WT TlpALBD.

For the compound `N=C(N)NCCC[C@H](N)C(=O)O` [Arginine, L-arginine monohydrochloride], in the experiment on TlpALBD, the Array result is “+”. The Kd at TlpAD165A was 12.4 ± 0.84 µM; at TlpAD254A, 3.71 ± 0.73 µM; on TlpALBD (TlpAWT) (setting [1]), 2 ± 0.11 µM; on TlpALBD (TlpAWT) (setting [2]) it was less than 10 µM; at TlpAM183A, 22.3 ± 5.9 µM; on TlpAY228A it was 8.3 ± 1.6 µM. At TlpAY252A, this compound gave a Kd of 4.96 ± 1.8 µM.

On to `N[C@@H](CS)C(=O)O` [Cysteine, L-cysteine hydrochloride monohydrate], for which the Array result in the experiment with TlpALBD is on record as “+/−”. In addition, the Kd on TlpAD165A is 41.9 ± 0.4 µM; on TlpAD254A, 4.58 ± 1.5 µM; at TlpALBD (TlpAWT) (setting [1]), 4.7 ± 0.3 µM; on TlpALBD (TlpAWT) (setting [2]), less than 10 µM; on TlpAM183A, 36.1 ± 15.7 µM; on TlpAY228A, 15.7 ± 6.6 µM. The compound further showed a Kd on TlpAY252A of 5.5 ± 0.8 µM.

For the compound `O=C(O)/C=C/C(=O)O` [Fumarate, sodium fumarate], the Array result with TlpALBD was “+”. Also, the Kd on TlpAD165A was 100 ± 38.9 µM; on TlpAD254A, 44 ± 8.1 µM; at TlpALBD (TlpAWT) (setting [1]) it was 10 ± 1.53 µM; at TlpALBD (TlpAWT) (setting [2]) it was less than 10 µM; on TlpAM183A, 106 ± 36.6 µM; on TlpAY228A, 46.6 ± 3.9 µM. Besides, on TlpAY252A, the Kd was 8.5 ± 1.7 µM. Moreover, the “Effect of TlpAD254A mutation on binding” value at TlpAD254A (membrane-proximal mutant vs WT) is “affected only fumarate binding”.

In the case of `N[C@H]1C(O)O[C@H](CO)[C@@H](O)[C@@H]1O` (stereo partly drawn) [Glucosamine, D(+)-glucosamine hydrochloride], the Array result in the experiment with TlpALBD is given as “+”. Also, the Kd at TlpAD165A is 96 ± 24.3 µM; on TlpAD254A, 9.84 ± 3.7 µM; on TlpALBD (TlpAWT) (setting [1]), 10.5 ± 2.8 µM; on TlpALBD (TlpAWT) (setting [2]), less than 10 µM; at TlpAM183A, 94.6 ± 57.3 µM; on TlpAY228A (read-out: Mean binding affinity ± SD, TlpAY228A, SPR, membrane-proximal mutant, n = 3), 17.1 µM. On TlpAY252A, this compound gave a Kd of 2.96 ± 0.7 µM.

With `O=C(O)C[C@H](O)C(=O)O` [Malic acid, L-malic acid], the Array result in the experiment on TlpALBD is given as “+/−”. Further, the Kd on TlpAD165A is 11.9 ± 4.3 µM; on TlpAD254A, 29.3 ± 2 µM; at TlpALBD (TlpAWT) (setting [1]), 46 ± 17 µM; at TlpALBD (TlpAWT) (setting [2]) it was greater than 45 µM; on TlpAM183A it was 33.6 ± 6.2 µM; at TlpAY228A it was 28.6 ± 9.4 µM. Moreover, on TlpAY252A, the Kd was found to be 14.2 ± 6.2 µM.

Regarding `Cc1ncc(C[n+]2csc(CCO)c2C)c(N)n1` [Thiamine, thiamine hydrochloride], in the experiment on TlpALBD, the Array result is reported as “+/−”. Besides, the Kd was 43.9 ± 14.1 µM at TlpAD165A; 39.3 ± 4.3 µM on TlpAD254A; 60 ± 0.6 µM at TlpALBD (TlpAWT) (setting [1]); greater than 45 µM on TlpALBD (TlpAWT) (setting [2]); 18.1 ± 1.2 µM at TlpAM183A; 29.5 ± 12.3 µM at TlpAY228A. This compound also displayed a Kd at TlpAY252A of 35 ± 7.3 µM.
